Key:
Assay type in all cases: in vivo
[1] = tested on: Surinam grass (Brachiaria decumbens); experiment: Test B postemergence
Procedure, shortened: (§1)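 Visual injury scores, 0 = no effect to 100 = complete control, assigned against controls after 13 to 15 days in the greenhouse. Compounds formulated in non-phytotoxic solvent plus surfactant and applied to soil after planting (pre) or onto foliage of 1- to 4-leaf plants (post).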

[2] = tested on: barnyardgrass (Echinochloa crus-galli); experiment: Test B postemergence
Procedure, shortened: as §1

[3] = tested on: blackgrass (Alopecurus myosuroides); experiment: Test B postemergence
Procedure, shortened: as §1

[4] = tested on: cocklebur (Xanthium strumarium); experiment: Test B postemergence
Procedure, shortened: as §1

[5] = tested on: corn (Zea mays); experiment: Test B postemergence
Procedure, shortened: as §1

[6] = tested on: crabgrass (Digitaria sanguinalis); experiment: Test B postemergence; conditions: Rate 125 g/ha, scale 0 to 100, 0 no effect, 100 complete control
Procedure, shortened: as §1

[7] = tested on: giant foxtail (Setaria faberii); experiment: Test B postemergence; conditions: Rate 125 g/ha, scale 0 to 100, 0 no effect, 100 complete control
Procedure, shortened: as §1

[8] = tested on: lambsquarters (Chenopodium album); experiment: Test B postemergence; conditions: Rate 125 g/ha, scale 0 to 100, 0 no effect, 100 complete control
Procedure, shortened: as §1

[9] = tested on: morning glory (Ipomoea hederacea); experiment: Test B postemergence; conditions: Rate 125 g/ha, scale 0 to 100, 0 no effect, 100 complete control
Procedure, shortened: as §1

[10] = tested on: pigweed (Amaranthus retroflexus); experiment: Test B postemergence; conditions: Rate 125 g/ha, scale 0 to 100, 0 no effect, 100 complete control
Procedure, shortened: as §1

[11] = tested on: velvetleaf (Abutilon theophrasti); experiment: Test B postemergence; conditions: Rate 125 g/ha, scale 0 to 100, 0 no effect, 100 complete control
Procedure, shortened: as §1

[12] = tested on: wheat (Triticum aestivum); experiment: Test B postemergence; conditions: Rate 125 g/ha, scale 0 to 100, 0 no effect, 100 complete control
Procedure, shortened: as §1

[13] = tested on: wild oat (Avena fatua); experiment: Test B postemergence; conditions: Rate 125 g/ha, scale 0 to 100, 0 no effect, 100 complete control
Procedure, shortened: as §1

[14] = tested on: Surinam grass (Brachiaria decumbens); experiment: Test B preemergence
Procedure, shortened: as §1

[15] = tested on: barnyardgrass (Echinochloa crus-galli); experiment: Test B preemergence
Procedure, shortened: as §1

[16] = tested on: cocklebur (Xanthium strumarium); experiment: Test B preemergence
Procedure, shortened: as §1

[17] = tested on: corn (Zea mays); experiment: Test B preemergence
Procedure, shortened: as §1

[18] = tested on: crabgrass (Digitaria sanguinalis); experiment: Test B preemergence
Procedure, shortened: as §1

[19] = tested on: giant foxtail (Setaria faberii); experiment: Test B preemergence
Procedure, shortened: as §1

[20] = tested on: lambsquarters (Chenopodium album); experiment: Test B preemergence
Procedure, shortened: as §1

[21] = tested on: morning glory (Ipomoea hederacea); experiment: Test B preemergence
Procedure, shortened: as §1

[22] = tested on: pigweed (Amaranthus retroflexus); experiment: Test B preemergence
Procedure, shortened: as §1

[23] = tested on: rice (Oryza saliva); experiment: Test B preemergence
Procedure, shortened: as §1

[24] = tested on: velvetleaf (Abutilon theophrasti); experiment: Test B preemergence
Procedure, shortened: as §1

[25] = tested on: barnyardgrass (Echinochloa crus-galli); experiment: Test C flooded paddy test; conditions: for Barnyardgrass plant response rating: Flooded Paddy, scale 0 to 100, 0 no effect, 100 complete control; for Plant response rating, Barnyardgrass / Plant response rating (scale 0 to 100), Barnyardgrass: flooded paddy test; for Plant response rating, Barnyardgrass: scale 0 to 100 (0 no effect, 100 complete control)
Procedure, shortened: (§2)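 Greenhouse-maintained for 12 to 14 days after treatment, the paddy plants (2-leaf stage at application) were scored visually against controls. A score of 0 denotes no effect and a score of 100 denotes complete control.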

[26] = tested on: duck salad (Heteranthera limosa); experiment: Test C flooded paddy test; conditions: for Ducksalad plant response rating: Flooded Paddy, scale 0 to 100, 0 no effect, 100 complete control; for Plant response rating, Ducksalad / Plant response rating (scale 0 to 100), Ducksalad: flooded paddy test; for Plant response rating, Ducksalad: scale 0 to 100 (0 no effect, 100 complete control)
Procedure, shortened: as §2

[27] = tested on: Sunflower; experiment: Test C preemergence; conditions: Rate 500 g/ha, visual evaluation after 12 to 14 days
[28] = Rate 125 g/ha, scale 0 to 100, 0 no effect, 100 complete control
[29] = Rate 500 g/ha, scale 0 to 100, 0 is no effect, 100 is complete control, 13 to 15 days
[30] = Preemergence, Rate 500 g/ha, scale 0 to 100, 0 no effect, 100 complete control
[31] = preemergence, Rate 125 g/ha, scale of 0 to 100 where 0 is no effect and 100 is complete control, 13 to 15 days
[32] = Rate 16 g/ha, visually evaluated after 12 to 14 days, 0 = no effect, 100 = complete control
[33] = Rate 62 g/ha, visually evaluated after 12 to 14 days, 0 = no effect, 100 = complete control
[34] = under head Rate 16 g/ha, (own rate not given), after 12 to 14 days

CCC(CC)c1ccn(C2OCN(c3cccc(OC(F)F)c3)C2=O)n1 (centres unmarked) [Compound 131]
Plant response rating, Surinam grass [1, 28]: 0
Plant response rating, Surinam grass [1, 29]: 30
Plant response rating, Barnyardgrass [2, 28]: 80
Plant response rating, Barnyardgrass [2, 29]: 100
Plant response rating, Blackgrass [3, 28]: 0
Plant response rating, Blackgrass [3, 29]: 0
Plant response rating, Cocklebur [4, 28]: 30
Plant response rating, Cocklebur [4, 29]: 70
Plant response rating, Corn [5, 28]: 0
Plant response rating, Corn [5, 29]: 20
Plant response rating, Crabgrass [6]: 0
Plant response rating, Foxtail, Giant [7]: 20
Plant response rating, Lambsquarters [8]: 90
Plant response rating, Morningglory [9]: 20
Plant response rating, Pigweed [10]: 80
Plant response rating, Velvetleaf [11]: 0
Plant response rating, Wheat [12]: 0
Plant response rating, Wild Oat [13]: 20
Plant response rating, Surinam grass [14, 30]: 100
Plant response rating, Surinam grass [14, 31]: 100
Plant response rating, Barnyardgrass [15, 30]: 100
Plant response rating, Barnyardgrass [15, 31]: 100
Plant response rating, Cocklebur [16, 30]: 30
Plant response rating, Cocklebur [16, 31]: 0
Plant response rating, Corn [17, 30]: 50
Plant response rating, Corn [17, 31]: 40
Plant response rating, Crabgrass [18, 30]: 100
Plant response rating, Crabgrass [18, 31]: 100
Plant response rating, Foxtail, Giant [19, 30]: 100
Plant response rating, Foxtail, Giant [19, 31]: 100
Plant response rating, Lambsquarters [20, 30]: 100
Plant response rating, Lambsquarters [20, 31]: 100
Plant response rating, Morningglory [21, 30]: 90
Plant response rating, Morningglory [21, 31]: 0
Plant response rating, Pigweed [22, 30]: 100
Plant response rating, Pigweed [22, 31]: 100
Plant response rating, Rice [23, 30]: 100
Plant response rating, Rice [23, 31]: 70
Plant response rating, Velvetleaf [24, 30]: 40
Plant response rating, Velvetleaf [24, 31]: 0
Barnyardgrass plant response rating ([25]; Rate 250 g/ha): 100
Barnyardgrass plant response rating ([25]; Rate 500 g/ha): 100
Plant response rating, Barnyardgrass ([25]; Rate 125 g/ha): 100
Plant response rating (scale 0 to 100), Barnyardgrass [25, 32]: 60
Plant response rating (scale 0 to 100), Barnyardgrass [25, 33]: 100
Plant response rating (scale 0 to 100), Barnyardgrass [25, 34]: 50
Ducksalad plant response rating ([26]; Rate 250 g/ha): 100
Ducksalad plant response rating ([26]; Rate 500 g/ha): 100
Plant response rating, Ducksalad ([26]; Rate 125 g/ha): 100
Plant response rating (scale 0 to 100), Ducksalad [26, 32]: 70
Plant response rating (scale 0 to 100), Ducksalad [26, 33]: 80
Plant response rating (scale 0 to 100), Ducksalad [26, 34]: 20
Plant response rating (0 to 100), Sunflower [27]: 20

CC(C)(C)c1ccn(C2OCN(c3cccc(OC(F)F)c3)C2=O)n1 (centres unmarked) [Compound 133]
Plant response rating, Surinam grass [1, 28]: 0
Plant response rating, Surinam grass [1, 29]: 40
Plant response rating, Barnyardgrass [2, 28]: 80
Plant response rating, Barnyardgrass [2, 29]: 100
Plant response rating, Blackgrass [3, 28]: 0
Plant response rating, Blackgrass [3, 29]: 0
Plant response rating, Cocklebur [4, 28]: 10
Plant response rating, Cocklebur [4, 29]: 30
Plant response rating, Corn [5, 28]: 0
Plant response rating, Corn [5, 29]: 0
Plant response rating, Crabgrass [6]: 40
Plant response rating, Foxtail, Giant [7]: 0
Plant response rating, Lambsquarters [8]: 100
Plant response rating, Morningglory [9]: 0
Plant response rating, Pigweed [10]: 80
Plant response rating, Velvetleaf [11]: 0
Plant response rating, Wheat [12]: 0
Plant response rating, Wild Oat [13]: 0
Plant response rating, Surinam grass [14, 30]: 100
Plant response rating, Surinam grass [14, 31]: 100
Plant response rating, Barnyardgrass [15, 30]: 100
Plant response rating, Barnyardgrass [15, 31]: 100
Plant response rating, Cocklebur [16, 30]: 0
Plant response rating, Cocklebur [16, 31]: 0
Plant response rating, Corn [17, 30]: 90
Plant response rating, Corn [17, 31]: 0
Plant response rating, Crabgrass [18, 30]: 100
Plant response rating, Crabgrass [18, 31]: 100
Plant response rating, Foxtail, Giant [19, 30]: 100
Plant response rating, Foxtail, Giant [19, 31]: 100
Plant response rating, Lambsquarters [20, 30]: 100
Plant response rating, Lambsquarters [20, 31]: 100
Plant response rating, Morningglory [21, 30]: 0
Plant response rating, Morningglory [21, 31]: 0
Plant response rating, Pigweed [22, 30]: 100
Plant response rating, Pigweed [22, 31]: 100
Plant response rating, Rice [23, 30]: 100
Plant response rating, Rice [23, 31]: 90
Plant response rating, Velvetleaf [24, 31]: 0
Barnyardgrass plant response rating ([25]; Rate 500 g/ha): 100
Plant response rating, Barnyardgrass ([25]; Rate 125 g/ha): 90
Plant response rating, Barnyardgrass ([25]; Rate 250 g/ha): 100
Plant response rating (scale 0 to 100), Barnyardgrass [25, 33]: 90
Ducksalad plant response rating ([26]; Rate 500 g/ha): 100
Plant response rating, Ducksalad ([26]; Rate 125 g/ha): 100
Plant response rating, Ducksalad ([26]; Rate 250 g/ha): 100
Plant response rating (scale 0 to 100), Ducksalad [26, 33]: 50
Plant response rating (0 to 100), Sunflower [27]: 0
